# In patent US20150218654A1, “METHODS FOR PREDICTING MULTIPLE MYELOMA TREATMENT RESPONSE” (INSERM (INSTITUT NATIONAL DE LA SANTÉ ET DE LA RE- CHERCHE …, priority 2012, published 2015):
# Assays:
# [1] = Cell viability of HMCLs by trypan blue exclusion; format: cell-based, human; conditions: human; for viability at 3 days, 0.5 μM: Day 3, mean ± SD; for viability at 7 days, 0.5 μM: Day 7, mean ± SD
# Method: (§1) The human MM cell lines XG-5, XG-6, XG-7, XG-20 and LP1 were grown in RPMI 1640 supplemented with 10% fetal bovine serum and 2 ng/ml recombinant IL-6. Cells (2×10^5/mL) were treated either with 0.5 μmol/L 5-Aza-2′-deoxycytidine (decitabine) (Sigma, St. Louis, Mo.) for 7 days.
# HMCLs = test: Cell viability of HMCLs by trypan blue exclusion; format: cell-based, human; conditions: five HMCLs, 0.5 μM for 7 days
# Method: as §1
# [2] = test system: HMCLs XG-5, XG-6, XG-7, XG-20 and LP1; conditions: 0.5 μM, 7 days, 5 HMCLs
# Method: Control cells were cultured in the same conditions without adding drug. […] Biotinylated cRNA was amplified with a double in vitro transcription and hybridized to the human U133 2.0 plus GeneChips, according to the manufacturer's instructions (Affymetrix, Santa Clara, Calif.). Fluorescence intensities were quantified and analyzed using the GECOS software (Affymetrix). Gene expression data were normalized with the MASS algorithm and analyzed with inventor's bioinformatics platforms-RAGE (http://[…] Amazonia (http://amazonia.[…] /) (36)-or SAM (Significance Analysis of Microarrays) software (37). The statistical significance of differences in overall survival between groups of patients was calculated by the log-rank test. Multivariate analysis was performed using the Cox proportional hazards model. Survival curves were plotted using the Kaplan-Meier method. All these analyses have been done with R.2.10.1 (http://www.r-project.org/) and bioconductor version 2.5. Gene annotation and networks were generated through the use of Ingenuity Pathways Analysis (Ingenuity® Systems, Redwood City, Calif.) (38).
# [3] = LP1 multiple myeloma cells, LP1, 0.5 μM decitabine
# [4] = XG-5 multiple myeloma cells, XG-5, 0.5 μM decitabine
# [5] = XG-6 multiple myeloma cells, XG-6, 0.5 μM decitabine
# [6] = XG-7 multiple myeloma cells, XG-7, 0.5 μM decitabine
# [7] = XG-20 multiple myeloma cells, XG-20, 0.5 μM decitabine
smiles,measurement,setting,value
"Nc1ncn([C@H]2C[C@H](O)[C@@H](CO)O2)c(=O)n1 [decitabine, 5-Aza-2′-deoxycytidine]","viability at 3 days, 0.5 μM",[1]; [3],91 ± 2%
same,"viability at 7 days, 0.5 μM",[1]; [3],86 ± 4%
same,"viability at 3 days, 0.5 μM",[1]; [4],65 ± 5%
same,"viability at 7 days, 0.5 μM",[1]; [4],69 ± 6%
same,"viability at 3 days, 0.5 μM",[1]; [5],90 ± 1%
same,"viability at 7 days, 0.5 μM",[1]; [5],90 ± 1%
same,"viability at 3 days, 0.5 μM",[1]; [6],90 ± 2%
same,"viability at 7 days, 0.5 μM",[1]; [6],85 ± 5%
same,"viability at 3 days, 0.5 μM",[1]; [7],91 ± 3%
same,"viability at 7 days, 0.5 μM",[1]; [7],83 ± 5%
same,effect on myeloma cell viability,HMCLs,did not affect myeloma cell viability
same,number of genes downregulated,[2]; FDR <5%,79 genes
same,number of genes significantly upregulated,[2]; FDR <5%,48 genes
same,Ratio 226719_at (CDNA FLJ34899 fis),[2]; treated vs control,0.53
same,Ratio 227755_at (CDNA FLJ42435 fis),[2]; treated vs control,0.53
same,Ratio 229969_at (Transcribed locus),[2]; treated vs control,0.41
same,Ratio 230570_at (Transcribed locus),[2]; treated vs control,0.37
same,Ratio 244623_at (Transcribed locus),[2]; treated vs control,0.39
same,Ratio ACRC (238825_at),[2]; treated vs control,25.99
same,Ratio ADFP (209122_at),[2]; treated vs control,3.70
same,Ratio AIG1 (223136_at),[2]; treated vs control,0.41
same,Ratio ALDH1L2 (231202_at),[2]; treated vs control,0.45
same,Ratio ARHGAP9 (224451_x_at),[2]; treated vs control,0.38
same,Ratio ATP1B1 (201243_s_at),[2]; treated vs control,3.43
same,Ratio C6orf48 (220755_s_at),[2]; treated vs control,0.49
same,Ratio C10orf57 (222545_s_at),[2]; treated vs control,0.56
same,Ratio C12orf5 (219099_at),[2]; treated vs control,2.16
same,Ratio C17orf27 (230000_at),[2]; treated vs control,2.41
same,Ratio C20orf118 (235964_x_at),[2]; treated vs control,2.12
same,Ratio CADPS2 (219572_at),[2]; treated vs control,0.37
same,Ratio CBS (212816_s_at),[2]; treated vs control,0.41
same,Ratio CBX4 (227558_at),[2]; treated vs control,0.49
same,Ratio CCPG1 (214152_at),[2]; treated vs control,0.44
same,Ratio COP1 (1552701_a_at),[2]; treated vs control,2.34
same,Ratio COPB2 (213500_at),[2]; treated vs control,0.58
same,Ratio CORO1A (209083_at),[2]; treated vs control,2.38
same,Ratio CT45-2 (235700_at),[2]; treated vs control,30.39
same,Ratio CTAGE5 (215930_s_at),[2]; treated vs control,0.30
same,Ratio CTBS (218923_at),[2]; treated vs control,0.42
same,Ratio DHCR7 (201791_s_at),[2]; treated vs control,0.45
same,Ratio DKFZP586A0522 (207761_s_at),[2]; treated vs control,2.97
same,Ratio DNAJB9 (1554462_a_at),[2]; treated vs control,0.42
same,Ratio DPYD (204646_at),[2]; treated vs control,0.48
same,Ratio DYRK4 (212954_at),[2]; treated vs control,0.42
same,Ratio EAF2 (219551_at),[2]; treated vs control,0.46
same,Ratio EIF2C2 (222294_s_at),[2]; treated vs control,0.52
same,Ratio EIF2S2 (208725_at),[2]; treated vs control,0.46
same,Ratio ELF4 (31845_at),[2]; treated vs control,1.75
same,Ratio ELL2 (226982_at),[2]; treated vs control,0.45
same,Ratio EPSTI1 (227609_at),[2]; treated vs control,1.99
same,Ratio ERN1 (235745_at),[2]; treated vs control,0.35
same,Ratio FKBP11 (219118_at),[2]; treated vs control,0.38
same,Ratio FLJ22028 (219802_at),[2]; treated vs control,0.44
same,Ratio FNDC3A (202304_at),[2]; treated vs control,0.40
same,Ratio G1P2 (205483_s_at),[2]; treated vs control,2.77
same,Ratio GALNT3 (203397_s_at),[2]; treated vs control,0.65
same,Ratio GLS (203157_s_at),[2]; treated vs control,0.42
same,Ratio GNG7 (228831_s_at),[2]; treated vs control,0.33
same,Ratio GOLPH3L (218361_at),[2]; treated vs control,0.45
same,Ratio GSK3B (226183_at),[2]; treated vs control,0.49
same,Ratio GSN (200696_s_at),[2]; treated vs control,3.97
same,Ratio H2-ALPHA (216323_x_at),[2]; treated vs control,2.56
same,Ratio HBS1L (209314_s_at),[2]; treated vs control,0.53
same,Ratio HEXIM1 (202814_s_at),[2]; treated vs control,2.18
same,Ratio HIST1H2BG (210387_at),[2]; treated vs control,2.00
same,Ratio HLA-DPA1 (211990_at),[2]; treated vs control,1.70
same,Ratio HN1 (217755_at),[2]; treated vs control,2.17
same,Ratio ID2 (201565_s_at),[2]; treated vs control,2.76
same,Ratio IDH1 (1555037_a_at),[2]; treated vs control,0.53
same,Ratio IER3 (201631_s_at),[2]; treated vs control,3.97
